In PubChem BioAssay AID588780 (Sanford-Burnham Center for Chemical Genomics, 2011):
pIC50: −log10 of the molar value. The source made the active and inactive calls.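 The calls were made as follows: active = compounds whose fitted half-maximal concentration in the cell-protection dose series is at or below a set limit; inactive = the rest.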

System: H9c2 cardiomyocytes, 2-deoxyglucose stress, ATP luminescence, 2 h
Assay: H9c2 cell survival under 2-deoxyglucose stress – uHTS hits, dose response (AID 588780)

| SMILES | IC50 | pIC50 |
| --- | --- | --- |
| Cc1ccc(NC(=O)CCc2nc3ccccc3c(=O)[nH]2)cc1S(=O)(=O)N1CCOCC1 | > 79 µM (inactive) |  |
| CC(C(=O)NC1CCCC1)N(C(=O)Cn1nnc(-c2ccc(F)cc2)n1)c1ccccc1F (stereo not given) | > 79 µM (inactive) |  |
| CC1(C)CC2CC(C)(CN2C(=O)COC(=O)c2n[nH]c(=O)c3ccccc23)C1 (stereo not given) | > 79 µM (inactive) |  |
| CC12CCC3C(CCC4CC(O)CCC43C)C1CC(O)C2 (stereo not given) | > 79 µM (inactive) |  |
| COc1ccc(/C=N/NC(=O)c2ccn[nH]2)cc1COc1ccc(Cl)cc1 | > 79 µM (inactive) |  |
| COC(=O)c1ccccc1NC(=O)c1ccc2nccnc2c1 | > 79 µM (inactive) |  |
| CS(=O)(=O)Nc1ccc(-c2ccc3nccn3c2)cc1 | > 79 µM (inactive) |  |
| COc1ccc(Cl)cc1-c1nc(-c2ccc(NC(=O)c3cccs3)cc2)no1 | > 79 µM (inactive) |  |
| O=C(N/N=C/c1ccccn1)c1cc(C2CC2)nc2ccccc12 | > 79 µM (inactive) |  |
| O=[N+]([O-])c1ccc(Nc2nc(N/N=C/c3cccc(F)c3)nc(N3CCCC3)n2)cc1 | > 79 µM (inactive) |  |
| CC(C)(C)OC(=O)C[C@@H]1C/C=C\C[C@@H](CC(=O)N[C@H](CO)Cc2ccccc2)C(=O)NC[C@@H](c2ccccc2)OC1=O | > 79 µM (inactive) |  |
| Cn1c(NCc2ccco2)nc2c1c(=O)n(Cc1ccc(Cl)cc1)c(=O)n2C | 31.3 µM (inactive) |  |
| CCOC(=O)c1c(C)nc2sc3c(=O)n(-c4ccc(C(C)=O)cc4)cnc3c2c1-c1ccc(OC)cc1 | > 79 µM (inactive) |  |
| Cc1cc(C)n2nc(C(=O)N/N=C/c3c4ccccc4cc4ccccc34)nc2n1 | > 79 µM (inactive) |  |
| O=C(CSc1ccc2nnc(-c3ccc(F)cc3)n2n1)N1CCCc2ccccc21 |  | 4.87 |
| COc1ccc(CC(=O)N(Cc2ccccc2)c2ccccc2)cc1S(=O)(=O)N1CCOCC1 | > 79 µM (inactive) |  |
| CC1(C)Oc2ccc3ccc(=O)oc3c2/C(=C/Nc2ccccn2)C1=O |  | 4.99 |
| Cn1c(=O)n(CCc2ccccc2)c(=O)c2c1nc1n2CCCN1Cc1ccccc1 |  | 4.85 |
| COc1ccc(/C=C/C(=O)c2ccccc2O)cc1CN1CCOCC1 | 36.7 µM (inactive) |  |
| COc1ccc(-c2cc3nc(C)cc(N4CCN(C(=O)c5ccoc5)CC4)n3n2)cc1 | 51.7 µM (inactive) |  |
| O=C(Nc1nnc(C2CC2)s1)c1cc(-c2ccccc2)nn1-c1ccccc1 | > 79 µM (inactive) |  |
| O=C(Cc1n[nH]c(=O)c2ccccc12)NCc1ccc(Cl)cc1 | > 79 µM (inactive) |  |
| CCOc1ccc(NC(=O)CN(C)C(=O)Cc2n[nH]c(=O)c3ccccc23)cc1OCC | > 79 µM (inactive) |  |
| O=[N+]([O-])c1ccc(-c2nc(Nc3ccc(O)cc3)c3ccccc3n2)cc1 | > 79 µM (inactive) |  |

| SMILES | IC50 | pIC50 |
| --- | --- | --- |
| Cc1ccc(C(c2c(C)n(C)n(-c3ccccc3)c2=O)c2c(C)n(C)n(-c3ccccc3)c2=O)s1 | > 79 µM (inactive) |  |
| C=CCn1cnc2c(c1=O)c1nc3ccccc3nc1n2/N=C/c1cc(OC)c(OC)c(OC)c1 | > 79 µM (inactive) |  |
| COc1cc2ccccc2cc1C(=O)NNC(=O)c1ccccc1O | > 79 µM (inactive) |  |
| COc1ccccc1NS(=O)(=O)c1cc(NC(=O)Cc2n[nH]c(=O)c3ccccc23)ccc1Cl |  | 4.61 |
| C[C@H](CO)N1C[C@H](C)[C@@H](CN(C)S(=O)(=O)c2ccc(F)cc2)Oc2ccc(NC(=O)Nc3ccc4c(c3)OCO4)cc2C1=O | 36 µM (inactive) |  |
| CC1Cc2ccccc2C(=O)N1 (stereo not given) | > 79 µM (inactive) |  |
| O=C(NN=Cc1ccc(N2CCOCC2)s1)c1ccc([N+](=O)[O-])cc1 | > 79 µM (inactive) |  |
| CC(=O)c1ccc(N2CCN(C(=O)c3cc(-c4cccnc4)nc4ccc(Br)cc34)CC2)cc1 |  | 4.96 |
| CC(=O)c1ccc(C(=O)Nc2nnc(-c3ccc(Cl)cc3)o2)cc1 |  | 4.81 |
| Oc1ccc2oc3c(c2c1C=NCc1ccncc1)CCCC3 | > 79 µM (inactive) |  |
| Nc1nonc1-n1nnc(C(=O)N/N=C/c2ccccn2)c1CNc1ccccc1 | 37.7 µM (inactive) |  |
| CC(=O)c1cccc(-c2cnc3c(NC=O)cc(-c4ccccc4F)cn23)c1 |  | 4.75 |
| CCCCn1c(N)c(Br)c(=O)[nH]c1=O | > 79 µM (inactive) |  |
| Cc1cccc(-n2c(SCc3cc(=O)n4ccsc4n3)nc3ccccc3c2=O)c1 |  | 4.85 |
| CC(C)OCCCNC(=O)CCC(=O)NNc1nc2ccccc2c2nc(-c3ccccc3)nn12 | > 79 µM (inactive) |  |
| COc1cc2c(C(=O)NCc3ccccn3)cn(CC(C)C)c(=O)c2cc1OC | 54.6 µM (inactive) |  |
| O=c1[nH]c(-c2cccnc2)nc2ccccc12 | > 79 µM (inactive) |  |
| COc1cc2ccnc(C=O)c2cc1OC | > 79 µM (inactive) |  |
| COCCN1CCN(c2c3c(nc4cc(-c5cccc(F)c5)nn24)CCC3)CC1 | 60.1 µM (inactive) |  |
| CC1CCN(C(=O)COC(=O)c2n[nH]c(=O)c3ccccc23)CC1 | 47.8 µM (inactive) |  |
| COc1ccc(NC(=O)c2cc(-c3ccc(OC)c(OC)c3)nc3ccccc23)c(OC)c1 | > 79 µM (inactive) |  |
| Cc1ccc2nsnc2c1S(=O)(=O)N(Cc1ccco1)Cc1cc2cccc(C)c2[nH]c1=O |  | 4.59 |
| COC(=O)c1cc2c(C)c(C)c3ccccn3c-2c1C(=O)OC | > 79 µM (inactive) |  |
| COc1ccc(-c2cc(-c3nnc(COC(=O)c4ccncc4)o3)c3ccccc3n2)cc1OC |  | 4.94 |

| SMILES | IC50 | pIC50 |
| --- | --- | --- |
| Oc1c(Br)cc(Br)cc1C=NCc1ccccc1 | > 79 µM (inactive) |  |
| Brc1ccc(-c2nn3c(-c4ccco4)nnc3s2)o1 |  | 4.70 |
| Cn1c(=O)c2c(nc(Br)n2Cc2ccc3ccccc3c2)n(C)c1=O | > 79 µM (inactive) |  |
| COc1ccc(-c2cc(NC(C)=O)c3ncc(-c4ccc(OC)c(OC)c4)n3c2)cc1OC | > 79 µM (inactive) |  |
| COc1ccc(Cl)cc1NC(=O)CN(C)C(=O)Cn1[nH]c(=O)c2ccccc2c1=O | > 79 µM (inactive) |  |
| Cc1c(OCC(=O)NCCN2CCOCC2)ccc2c1oc(=O)c1ccccc12 |  | 4.96 |
| CCC(CC)C(=O)Nc1cc(C)c2c(=O)oc3ccccc3c2n1 | > 79 µM (inactive) |  |
| CC(C)(C)OC(=O)CNC(=O)c1[nH]cnc1C(=O)NC(c1ccccc1)c1ccccc1 |  | 4.72 |
| COc1ccc(CNC(=O)c2ccc(Cn3nc(C)c([N+](=O)[O-])c3C)o2)cc1 | > 79 µM (inactive) |  |
| CN(C)S(=O)(=O)c1cccc(NC(=O)COC(=O)c2ccc([N+](=O)[O-])o2)c1 | > 79 µM (inactive) |  |
| CCOC(=O)c1nc(Nc2ccc(C(C)=O)cc2)c2ccccc2n1 |  | 4.72 |
| O=C1OCCN1C(=O)[C@H]1[C@H](c2ccc([N+](=O)[O-])cc2)C(c2ccccc2)=NN1c1ccc(Br)cc1 | > 79 µM (inactive) |  |
| O=C(COC(=O)Cn1[nH]c(=O)c2ccccc2c1=O)NNC(=O)c1ccccc1 | > 79 µM (inactive) |  |
| CCOC(=O)c1cccc(Nc2nc(-c3cccnc3)nc3ccccc23)c1 |  | 4.54 |
| Cc1ccc(-c2nn3c(C)nnc3s2)cc1NC(=O)COc1ccc(Cl)cc1 | > 79 µM (inactive) |  |
| O=C(CSc1nc2ccccc2c(=O)[nH]1)c1ccccc1 | > 79 µM (inactive) |  |
| CCOC(=O)c1ccc(NC(=O)c2nc[nH]c2C(=O)NCCCCCNC(=O)OC(C)(C)C)cc1 |  | 5.24 |
| O=C(c1cc(=O)[nH]c2ccccc12)N1CCN(S(=O)(=O)c2ccc3ccccc3c2)CC1 |  | 4.84 |
| O=C(Cn1[nH]c(=O)c2ccccc2c1=O)NC1CCCCCC1 | > 79 µM (inactive) |  |
| NC(=O)c1ccc(NC(=O)COc2cccc3c2CCNC3=O)cc1 | > 79 µM (inactive) |  |
| CCOc1ccc2nc(NC(=O)CN3CCC(n4nnc5cc(F)ccc54)CC3)sc2c1 | > 79 µM (inactive) |  |
| CN1CCN(Cc2nc3ccccc3c(=O)[nH]2)CC1 | > 79 µM (inactive) |  |
| CCn1c(/C=N/NC(=O)c2ccc(OC)cc2)nc2ccccc21 | > 79 µM (inactive) |  |
| CCCn1c(=O)c(C(=O)Nc2ccccc2)c(O)c2ccccc21 | > 79 µM (inactive) |  |

| SMILES | IC50 | pIC50 |
| --- | --- | --- |
| CC(C)N1C(=O)S/C(=C/c2ccc3c(c2)n(C)c(=O)n3C)C1=O | > 79 µM (inactive) |  |
| Cc1c(C=O)c2ccccn2c1C(=O)c1ccc(Cl)c([N+](=O)[O-])c1 | > 79 µM (inactive) |  |
| COc1cc(-c2nnc(COC(=O)c3cc(C)nc4ccc(C)cc34)o2)cc(OC)c1OC |  | 4.81 |
| NC(=O)c1ccc(Nc2nnc(-c3ccc(O)cc3)c3ccccc23)cc1 |  | 4.53 |
| COc1cccc(-c2nnc3sc(-c4ccccn4)nn23)c1 | > 79 µM (inactive) |  |
| COc1ccc(CCNC(=O)C(=O)NCC2CCCN2S(=O)(=O)c2ccccc2)cc1OC (stereo not given) | > 79 µM (inactive) |  |
| COc1ccc(C2CCCCCN2C(=O)C2CCN(S(=O)(=O)c3cccc(C(C)=O)c3)CC2)cc1 (stereo not given) | > 79 µM (inactive) |  |
| COc1cccc2cc(-c3cc(=O)oc4ccc(OCC(C)=O)cc34)oc12 | > 79 µM (inactive) |  |
| CCOC(=O)C(C)Oc1ccc(C2NC(=O)NC(C)=C2C(C)=O)cc1Br (stereo not given) | > 79 µM (inactive) |  |
| CC(C)CCN(C(=O)CNC(=O)c1ccco1)C(C(=O)NC1CCCCC1)c1ccco1 (stereo not given) | 37.5 µM (inactive) |  |
| COc1ccc(OCC(=O)N/N=C/c2cccc3cccnc23)cc1 | 38.6 µM (inactive) |  |
| N#Cc1c(-c2ccco2)cc(-c2cccnc2)nc1N |  | 4.92 |
| Cc1cc(OCC(=O)N2CCOCC2)cc2oc(=O)c3ccccc3c12 |  | 4.83 |
| CCOC(=O)N1CCC(NC(=O)c2cc3c(-c4ccccc4F)nn(C)c3s2)CC1 | > 79 µM (inactive) |  |
| O=C(N/N=C/c1c(O)n(-c2ccccc2Cl)c(=O)c2ccccc12)C1COc2ccccc2O1 (stereo not given) |  | 4.79 |
| CCc1nnc(NC(=O)CCC(=O)N2CCN(C3c4ccccc4-c4ccccc43)CC2)s1 | > 79 µM (inactive) |  |
| CC1Cc2ccccc2N1C(=O)COC(=O)c1n[nH]c(=O)c2ccccc12 (stereo not given) | > 79 µM (inactive) |  |
| O=C(CN(c1ccc2c(c1)OCCO2)S(=O)(=O)c1ccccc1)Nc1ccc2c(c1)OCO2 | > 79 µM (inactive) |  |
| CN1C(=O)CSc2ccc(NC(=O)Nc3ccccn3)cc21 | > 79 µM (inactive) |  |
| COc1ccccc1CN(C(=O)CNC(=O)c1ccco1)C(C(=O)NCC1CCCO1)c1ccccc1 (stereo not given) |  | 4.93 |
| COc1cc(NS(=O)(=O)c2ccc3ccccc3c2)c2ncccc2c1 |  | 4.74 |
| S=c1[nH]c2ccccc2c2ccccc12 | > 79 µM (inactive) |  |
| O=C(CSc1nnc(-c2cccnc2)o1)c1cc2ccccc2oc1=O | 67 µM (inactive) |  |
